From the NIST ThermoML archive (doi:10.1016/j.jct.2006.04.007)
Several values for one entry are separate records, joined by “and”; a condition that tells them apart may be missing. Equal entries are not always repeated.

Assay: mn = molality of the nth substance listed, in mol/kg
Settings: 350 kPa, Liquid; for apparent molar heat capacity: Extra sensitive DSC

CC(=O)N[C@@H](C=O)[C@@H](O)[C@H](O)[C@H](O)CO [N-acetyl-D-glucosamine] + O
Settings	apparent molar heat capacity	mass density
318.15 K, m1 = 0.1999	–	1004.1 kg/m3
318.15 K, m1 = 0.3018	–	1010.81 kg/m3
318.15 K, m1 = 0.5001	–	1023.43 kg/m3
318.15 K, m1 = 0.7003	–	1035.3 kg/m3
318.15 K, m1 = 0.958	–	1051.87 kg/m3
323.15 K, m1 = 0.0096	516 J/K/mol	–
323.15 K, m1 = 0.0207	501 J/K/mol	–
323.15 K, m1 = 0.03	483 J/K/mol and 488 J/K/mol	–
323.15 K, m1 = 0.07	493.4 J/K/mol	–
323.15 K, m1 = 0.1502	483.4 J/K/mol	–
323.15 K, m1 = 0.1999	495.3 J/K/mol	–
323.15 K, m1 = 0.3018	498.2 J/K/mol	–
323.15 K, m1 = 0.5001	502.3 J/K/mol	–
323.15 K, m1 = 0.7003	503 J/K/mol	–
323.15 K, m1 = 0.958	484.1 J/K/mol	–
328.15 K, m1 = 0.0096	524 J/K/mol	–
328.15 K, m1 = 0.01	–	986.41 kg/m3
328.15 K, m1 = 0.02	–	987.4 kg/m3
328.15 K, m1 = 0.0207	509 J/K/mol	–
328.15 K, m1 = 0.03	490 J/K/mol and 497 J/K/mol	987.95 kg/m3 and 987.87 kg/m3
328.15 K, m1 = 0.07	501.3 J/K/mol	990.79 kg/m3
328.15 K, m1 = 0.1502	492.7 J/K/mol	997.12 kg/m3
328.15 K, m1 = 0.1999	503.9 J/K/mol	999.48 kg/m3
328.15 K, m1 = 0.3018	506.8 J/K/mol	1006.12 kg/m3
328.15 K, m1 = 0.5001	510.8 J/K/mol	1018.64 kg/m3
328.15 K, m1 = 0.7003	511.5 J/K/mol	1030.41 kg/m3
328.15 K, m1 = 0.958	492.8 J/K/mol	1046.86 kg/m3
333.15 K, m1 = 0.0096	532 J/K/mol	–
333.15 K, m1 = 0.0207	517 J/K/mol	–
333.15 K, m1 = 0.03	498 J/K/mol and 506 J/K/mol	–
333.15 K, m1 = 0.07	509.2 J/K/mol	–
333.15 K, m1 = 0.1502	501.5 J/K/mol	–
333.15 K, m1 = 0.1999	512.1 J/K/mol	–
333.15 K, m1 = 0.3018	514.9 J/K/mol	–
333.15 K, m1 = 0.5001	518.8 J/K/mol	–
333.15 K, m1 = 0.7003	519.6 J/K/mol	–
333.15 K, m1 = 0.958	501.1 J/K/mol	–
338.15 K, m1 = 0.0096	540 J/K/mol	–
338.15 K, m1 = 0.0207	524 J/K/mol	–
338.15 K, m1 = 0.03	505 J/K/mol and 514 J/K/mol	–
338.15 K, m1 = 0.07	517 J/K/mol	–
338.15 K, m1 = 0.1502	510.1 J/K/mol	–
338.15 K, m1 = 0.1999	520 J/K/mol	–
338.15 K, m1 = 0.3018	522.8 J/K/mol	–
338.15 K, m1 = 0.5001	526.6 J/K/mol	–
338.15 K, m1 = 0.7003	527.5 J/K/mol	–
338.15 K, m1 = 0.958	509.1 J/K/mol	–
343.15 K, m1 = 0.0096	547 J/K/mol	–
343.15 K, m1 = 0.0207	532 J/K/mol	–
343.15 K, m1 = 0.03	511 J/K/mol and 523 J/K/mol	–
343.15 K, m1 = 0.07	524.3 J/K/mol	–
343.15 K, m1 = 0.1502	518.1 J/K/mol	–
343.15 K, m1 = 0.1999	527.4 J/K/mol	–
343.15 K, m1 = 0.3018	530.1 J/K/mol	–
343.15 K, m1 = 0.5001	533.9 J/K/mol	–
343.15 K, m1 = 0.7003	535 J/K/mol	–
343.15 K, m1 = 0.958	516.5 J/K/mol	–
348.15 K, m1 = 0.0096	554 J/K/mol	–
348.15 K, m1 = 0.01	–	975.69 kg/m3
348.15 K, m1 = 0.02	–	976.44 kg/m3
348.15 K, m1 = 0.0207	538 J/K/mol	–
348.15 K, m1 = 0.03	518 J/K/mol and 531 J/K/mol	977.15 kg/m3 and 977.05 kg/m3
348.15 K, m1 = 0.07	531.6 J/K/mol	979.84 kg/m3
348.15 K, m1 = 0.1502	525.9 J/K/mol	986.13 kg/m3
348.15 K, m1 = 0.1999	534.7 J/K/mol	988.48 kg/m3
348.15 K, m1 = 0.3018	537.2 J/K/mol	995.03 kg/m3
348.15 K, m1 = 0.5001	540.8 J/K/mol	1007.4 kg/m3
348.15 K, m1 = 0.7003	542.3 J/K/mol	1019.03 kg/m3
348.15 K, m1 = 0.958	523.5 J/K/mol	1035.29 kg/m3
353.15 K, m1 = 0.0096	561 J/K/mol	–
353.15 K, m1 = 0.0207	545 J/K/mol	–
353.15 K, m1 = 0.03	524 J/K/mol and 539 J/K/mol	–
353.15 K, m1 = 0.07	538.7 J/K/mol	–
353.15 K, m1 = 0.1502	533.4 J/K/mol	–
353.15 K, m1 = 0.1999	541.6 J/K/mol	–
353.15 K, m1 = 0.3018	544.1 J/K/mol	–
353.15 K, m1 = 0.5001	547.6 J/K/mol	–
353.15 K, m1 = 0.7003	549.6 J/K/mol	–
353.15 K, m1 = 0.958	530.3 J/K/mol	–
358.15 K, m1 = 0.0096	568 J/K/mol	–
358.15 K, m1 = 0.01	–	969.57 kg/m3
358.15 K, m1 = 0.02	–	969.97 kg/m3
358.15 K, m1 = 0.0207	552 J/K/mol	–
358.15 K, m1 = 0.03	529 J/K/mol and 547 J/K/mol	970.91 kg/m3 and 970.89 kg/m3
358.15 K, m1 = 0.07	545.8 J/K/mol	973.66 kg/m3
358.15 K, m1 = 0.1502	540.9 J/K/mol	979.94 kg/m3
358.15 K, m1 = 0.1999	548.3 J/K/mol	982.31 kg/m3
358.15 K, m1 = 0.3018	550.7 J/K/mol	988.83 kg/m3
358.15 K, m1 = 0.5001	554.1 J/K/mol	1000.87 kg/m3
358.15 K, m1 = 0.7003	556.9 J/K/mol	1012.6 kg/m3
358.15 K, m1 = 0.958	536.9 J/K/mol	1028.69 kg/m3
363.15 K, m1 = 0.0096	574 J/K/mol	–
363.15 K, m1 = 0.0207	558 J/K/mol	–
363.15 K, m1 = 0.03	533 J/K/mol and 553 J/K/mol	–
363.15 K, m1 = 0.07	551.5 J/K/mol	–
363.15 K, m1 = 0.1502	547.3 J/K/mol	–
363.15 K, m1 = 0.1999	554.3 J/K/mol	–
363.15 K, m1 = 0.3018	556.6 J/K/mol	–
363.15 K, m1 = 0.5001	559.9 J/K/mol	–
363.15 K, m1 = 0.7003	564.4 J/K/mol	–
363.15 K, m1 = 0.958	542.9 J/K/mol	–
368.15 K, m1 = 0.01	–	963.46 kg/m3
368.15 K, m1 = 0.02	–	963.16 kg/m3
368.15 K, m1 = 0.03	–	964.01 kg/m3 and 964.02 kg/m3
368.15 K, m1 = 0.07	–	966.84 kg/m3
368.15 K, m1 = 0.1502	–	973.05 kg/m3
368.15 K, m1 = 0.1999	–	975.42 kg/m3
368.15 K, m1 = 0.3018	–	981.89 kg/m3
368.15 K, m1 = 0.5001	–	994.17 kg/m3
368.15 K, m1 = 0.7003	–	1005.68 kg/m3
368.15 K, m1 = 0.958	–	1021.82 kg/m3
